Measurements taken from article PMC11662004 (Communications Chemistry, 2024).
Several values for one entry are separate records, joined by “and”; a condition that tells them apart may be missing. Equal values may be shown once. Read-outs that look alike come from different tables or passages of the source.

Target: T1, NgTet1 (Naegleria gruberi, UniProt D2W6T1)
T1 construct: His6-tagged full-length Naegleria gruberi NgTet1 (321 a. a.) protein with a thrombin cleavage site; made in house; host or cells: E. coli BL21(DE3)
T1 sequence (D2W6T1 1-321): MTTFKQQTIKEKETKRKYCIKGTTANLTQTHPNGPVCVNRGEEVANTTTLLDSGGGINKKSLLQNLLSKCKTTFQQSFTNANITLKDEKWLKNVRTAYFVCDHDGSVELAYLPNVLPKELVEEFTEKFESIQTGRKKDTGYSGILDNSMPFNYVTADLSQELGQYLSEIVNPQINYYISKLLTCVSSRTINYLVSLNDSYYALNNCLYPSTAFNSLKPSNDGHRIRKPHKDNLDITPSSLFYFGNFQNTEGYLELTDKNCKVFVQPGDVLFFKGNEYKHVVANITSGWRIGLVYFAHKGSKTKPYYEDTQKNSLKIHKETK
Assay: biochemical
Conditions: for IC50: 5 μM NgTet1, 50 μM 2OG; for normalised activity, %: NMR
Method: Activity was normalised against reactions containing vehicle (DMSO). […] AS data shown as the mean of three experimental replicates (n = 3; mean ± SD); ^1H NMR data plotted from two independent replicates (n = 2); tabulated data reported as the mean of two and three independent replicates for ^1H NMR and AS, respectively (n = 2–3, SD reported for n = 3). N. d.: not determined; AS: AlphaScreen.
All ^1H NMR spectra were recorded at 25 °C using D2O as a reference for internal deuterium lock on a Bruker Avance III 700 MHz equipped with an inverse TCI cryoprobe in 3 or 5 mm diameter tubes with a total sample volume of 160 or 565 μL, respectively. The water signal was reduced using Perfect Echo excitation sculpting suppression. Chemical shifts are reported in ppm relative to D2O (δH = 4.70 ppm).
NgTet1 was pre-incubated with inhibitor dilution series in DMSO-d6 at room temperature for 10 min (50 mM Tris-d11 [pH 7.5], 2% v/v DMSO-d6). Reactions were initiated by the addition of appropriate cofactors and DNA. […] The reactions were quenched by the addition of 9 mM NOG and 9 mM ZnCl2 in 90 mM Tris-d11 [pH 7.5] (20 μL) within the enzyme linear activity window (determined in Figure. S10). Samples were transferred to NMR tubes and subjected to ^1H NMR analysis. Data were processed as described above. Inhibition data was normalised to reactions containing vehicle only (1% v/v DMSO-d6) and fitted using “log(inhibitor) vs. response - Variable slope (four parameters)” non-linear regression model on GraphPad Prism 5.
Activity was normalised against reactions containing vehicle only (100% activity). Data is shown as the mean of 2 independent replicates (n = 2; […]
Fig. S10 Determination of linear NgTet1 enzymatic activity windows for inhibitor characterisation. a 1H NMR succinate detection time courses with no DNA, 5HC DNA (double- […]
complementary 5'-ACC AC5mC GGT GGT-3'). b AlphaScreen 5hmC detection time course using […]
courses shown. 1H NMR reaction conditions: 5 μM NgTet1, 2 mM sodium L-ascorbate, 100 μM […]
v/v D2O. DNA was added to a final concentration of 20 μM of double-stranded DNA. […]

O=C(O)CNC(=O)C(=O)O [NOG, N-oxalylglycine]
potency reduced in the presence of non-substrate 5HC DNA (1H NMR, uncoupled 2OG turnover): 5 fold
IC50 (2OG decarboxylation with 20 µM 5HC DNA, read-out: IC50, 5HC DNA, NMR): 23.4 µM
IC50 (2OG decarboxylation with 20 µM 5mC DNA, read-out: IC50, 5mC DNA, NMR): 4.9 µM
normalised activity, % (5HC DNA, -Log[inhibitor] (M) 3): 9.08% and 0%
normalised activity, % (5HC DNA, -Log[inhibitor] (M) 3.5): 14.96% and 8.89%
normalised activity, % (5HC DNA, -Log[inhibitor] (M) 4): 27.44% and 19.98%
normalised activity, % (5HC DNA, -Log[inhibitor] (M) 4.5): 46.19% and 37.58%
normalised activity, % (5HC DNA, -Log[inhibitor] (M) 5): 68.86% and 59.35%
normalised activity, % (5HC DNA, -Log[inhibitor] (M) 5.5): 85.6% and 77.94%
normalised activity, % (5HC DNA, -Log[inhibitor] (M) 6): 94.01% and 91.73%
normalised activity, % (5HC DNA, -Log[inhibitor] (M) 6.5): 98.78% and 94.75%
normalised activity, % (5HC DNA, -Log[inhibitor] (M) 7): 98.78% and 99.12%
normalised activity, % (5HC DNA, -Log[inhibitor] (M) 7.5): 97.21% and 98.4%
potency improved relative to AS assay (5mC DNA substrate-saturating conditions, 1H NMR): 40 fold
normalised activity, % (5mC DNA, -Log[inhibitor] (M) 2.47712): 3.86% and 2.962%
normalised activity, % (5mC DNA, -Log[inhibitor] (M) 2.95424): 3.763% and 4.321%
normalised activity, % (5mC DNA, -Log[inhibitor] (M) 3.43136): 5.679% and 6.122%
normalised activity, % (5mC DNA, -Log[inhibitor] (M) 3.90849): 9.059% and 9.958%
normalised activity, % (5mC DNA, -Log[inhibitor] (M) 4.38561): 18.3792% and 18.5451%
normalised activity, % (5mC DNA, -Log[inhibitor] (M) 4.86273): 32.2896% and 33.1008%
normalised activity, % (5mC DNA, -Log[inhibitor] (M) 5.33985): 53.2739% and 54.7766%
normalised activity, % (5mC DNA, -Log[inhibitor] (M) 5.81697): 75.7036% and 73.0834%
normalised activity, % (5mC DNA, -Log[inhibitor] (M) 6.29409): 86.8413% and 87.2847%
normalised activity, % (5mC DNA, -Log[inhibitor] (M) 6.77): 92.8024% and 96.8118%
normalised activity, % (5mC DNA, -Log[inhibitor] (M) 7.25): 100.282% and 100.776%
normalised activity, % (5mC DNA, -Log[inhibitor] (M) 7.73): 99.5779% and 101.189%
normalised activity, % (No DNA, -Log[inhibitor] (M) 2): 1.894% and 2.62%
normalised activity, % (No DNA, -Log[inhibitor] (M) 2.47712): 5.905% and 12.6681%
normalised activity, % (No DNA, -Log[inhibitor] (M) 3.43136): 23.7146% and 37.124%
normalised activity, % (No DNA, -Log[inhibitor] (M) 3.90849): 40.5302% and 59.4882%
normalised activity, % (No DNA, -Log[inhibitor] (M) 4.38561): 74.4281% and 76.6397%
normalised activity, % (No DNA, -Log[inhibitor] (M) 4.86273): 97.4209% and 83.0858%
normalised activity, % (No DNA, -Log[inhibitor] (M) 5.33985): 104.499% and 99.5811%
normalised activity, % (No DNA, -Log[inhibitor] (M) 5.81697): 103.384% and 101.173%
normalised activity, % (No DNA, -Log[inhibitor] (M) 6.29409): 102.321% and 96.0908%
IC50 (uncoupled 2OG decarboxylation, no DNA, read-out: IC50, No DNA, NMR): 118 µM
